Test results published in ChEMBL document CHEMBL2412957, “Synthesis and SAR of 4-aminocyclopentapyrrolidines as orally active N-type calcium channel inhibitors for inflammatory and neuropathic pain” (Bioorg Med Chem Lett, 2013).
Converted amounts (≈) assume the structure as drawn.

Key:
[1] = Metabolic stability in rat liver microsomes assessed as compound remaining after 30 mins; type: ADME, Microsome; settings: read-out: Stability
[2] = Metabolic stability in human liver microsomes assessed as compound remaining after 30 mins; type: ADME, Microsome; settings: read-out: Stability
[3] = Solubility of the compound by chemiluminescent nitrogen detection method
[4] = target: Voltage-dependent N-type calcium channel subunit alpha-1B (Homo sapiens, UniProt Q00975); test: Inhibition of N-type Cav2.2 channel (unknown origin) by FLIPR assay
[5] = target: Voltage-gated L-type calcium channel (Rattus norvegicus, UniProt P22002+Q02485+P27732); test: Inhibition of L-type calcium channel in rat aorta ring tissue assessed as relaxation of tissue; type: tissue-based
Rattus norvegicus [6] = test: Cardiotoxicity in anesthetized rat assessed as decrease in mean arterial pressure at plasma concentration of 1.57 ug/mL; type: toxicity, organism-based
Rattus norvegicus [7] = species on record: Rattus norvegicus; test: Analgesic activity in rat chronic constriction injury-induced neuropathic pain model; type: functional
Rattus norvegicus [8] = species on record: Rattus norvegicus; test: Analgesic activity in rat monoiodoaceate-induced osteoarthritis pain model; type: functional
Rattus norvegicus [9] = species on record: Rattus norvegicus; test: Analgesic activity in rat capsaicin secondary mechanical hyperalgesia pain model; type: functional
[10] = target: T1, Voltage-dependent N-type calcium channel subunit alpha-1B (Rattus norvegicus, UniProt Q02294); test: Inhibition of rat N-type Cav2.2 channel expressed in HEK293 cells under hyperpolarized condition by whole cell patch-clamp manual electrophysiology assay; type: cell-based
[11] = Ratio of drug level brain to plasma in po dosed rat after 60 mins; type: ADME, organism-based; settings: read-out: BPR
[12] = target: T1, Voltage-dependent N-type calcium channel subunit alpha-1B; test: Inhibition of rat N-type Cav2.2 channel expressed in HEK293 cells under depolarized condition by whole cell patch-clamp manual electrophysiology assay; type: cell-based
Rattus norvegicus [13] = test: (§1) AUC in rat at 30 umol/kg, po; type: ADME, organism-based, Plasma; settings: in vivo
Rattus norvegicus [14] = test: (§2) Plasma clearance in rat at 5 umol/kg, iv and 30 umol/kg, po; type: ADME, organism-based; settings: in vivo
Rattus norvegicus [15] = test: (§3) Oral bioavailability in rat at 30 umol/kg; type: ADME, organism-based; settings: in vivo, at 30 µmol/kg
[16] = Volume of distribution at steady state in rat at 5 umol/kg, iv and 30 umol/kg, po; type: ADME, organism-based; settings: in vivo, read-out: Vdss
[17] = Half life in rat at 5 umol/kg, iv and 30 umol/kg, po; type: ADME, organism-based; settings: in vivo
[18] = Oral bioavailability in rat at 5 umol/kg; type: ADME, organism-based; settings: in vivo
[19] = AUC in rat at 5 umol/kg, po; type: ADME, organism-based; settings: plasma
[20] = Ratio of drug level brain to plasma in rat at 3 umol/kg, ip after 30 mins; type: ADME, organism-based; settings: read-out: BPR
[21] = Plasma clearance in rat at 5 umol/kg, iv and 5 umol/kg, po; type: ADME, organism-based
[22] = Half life in rat at 5 umol/kg, iv and 5 umol/kg, po; type: ADME, organism-based; settings: in vivo
[23] = Volume of distribution at steady state in rat at 5 umol/kg, iv and 5 umol/kg, po; type: ADME, organism-based; settings: in vivo, read-out: Vdss
[24] = target: Voltage-gated inwardly rectifying potassium channel KCNH2 (Homo sapiens, UniProt Q12809); test: Inhibition of dofetilide binding to human ERG
[25] = as §1; type: ADME, organism-based, Plasma; settings: plasma, 30 umol/kg
[26] = as §2; type: ADME, organism-based; settings: plasma
[27] = as §3; type: ADME, organism-based; settings: in vivo, 30 umol/kg

Chain of Voltage-dependent N-type calcium channel subunit alpha-1B (Homo sapiens, UniProt Q00975) (Q00975 whole entry): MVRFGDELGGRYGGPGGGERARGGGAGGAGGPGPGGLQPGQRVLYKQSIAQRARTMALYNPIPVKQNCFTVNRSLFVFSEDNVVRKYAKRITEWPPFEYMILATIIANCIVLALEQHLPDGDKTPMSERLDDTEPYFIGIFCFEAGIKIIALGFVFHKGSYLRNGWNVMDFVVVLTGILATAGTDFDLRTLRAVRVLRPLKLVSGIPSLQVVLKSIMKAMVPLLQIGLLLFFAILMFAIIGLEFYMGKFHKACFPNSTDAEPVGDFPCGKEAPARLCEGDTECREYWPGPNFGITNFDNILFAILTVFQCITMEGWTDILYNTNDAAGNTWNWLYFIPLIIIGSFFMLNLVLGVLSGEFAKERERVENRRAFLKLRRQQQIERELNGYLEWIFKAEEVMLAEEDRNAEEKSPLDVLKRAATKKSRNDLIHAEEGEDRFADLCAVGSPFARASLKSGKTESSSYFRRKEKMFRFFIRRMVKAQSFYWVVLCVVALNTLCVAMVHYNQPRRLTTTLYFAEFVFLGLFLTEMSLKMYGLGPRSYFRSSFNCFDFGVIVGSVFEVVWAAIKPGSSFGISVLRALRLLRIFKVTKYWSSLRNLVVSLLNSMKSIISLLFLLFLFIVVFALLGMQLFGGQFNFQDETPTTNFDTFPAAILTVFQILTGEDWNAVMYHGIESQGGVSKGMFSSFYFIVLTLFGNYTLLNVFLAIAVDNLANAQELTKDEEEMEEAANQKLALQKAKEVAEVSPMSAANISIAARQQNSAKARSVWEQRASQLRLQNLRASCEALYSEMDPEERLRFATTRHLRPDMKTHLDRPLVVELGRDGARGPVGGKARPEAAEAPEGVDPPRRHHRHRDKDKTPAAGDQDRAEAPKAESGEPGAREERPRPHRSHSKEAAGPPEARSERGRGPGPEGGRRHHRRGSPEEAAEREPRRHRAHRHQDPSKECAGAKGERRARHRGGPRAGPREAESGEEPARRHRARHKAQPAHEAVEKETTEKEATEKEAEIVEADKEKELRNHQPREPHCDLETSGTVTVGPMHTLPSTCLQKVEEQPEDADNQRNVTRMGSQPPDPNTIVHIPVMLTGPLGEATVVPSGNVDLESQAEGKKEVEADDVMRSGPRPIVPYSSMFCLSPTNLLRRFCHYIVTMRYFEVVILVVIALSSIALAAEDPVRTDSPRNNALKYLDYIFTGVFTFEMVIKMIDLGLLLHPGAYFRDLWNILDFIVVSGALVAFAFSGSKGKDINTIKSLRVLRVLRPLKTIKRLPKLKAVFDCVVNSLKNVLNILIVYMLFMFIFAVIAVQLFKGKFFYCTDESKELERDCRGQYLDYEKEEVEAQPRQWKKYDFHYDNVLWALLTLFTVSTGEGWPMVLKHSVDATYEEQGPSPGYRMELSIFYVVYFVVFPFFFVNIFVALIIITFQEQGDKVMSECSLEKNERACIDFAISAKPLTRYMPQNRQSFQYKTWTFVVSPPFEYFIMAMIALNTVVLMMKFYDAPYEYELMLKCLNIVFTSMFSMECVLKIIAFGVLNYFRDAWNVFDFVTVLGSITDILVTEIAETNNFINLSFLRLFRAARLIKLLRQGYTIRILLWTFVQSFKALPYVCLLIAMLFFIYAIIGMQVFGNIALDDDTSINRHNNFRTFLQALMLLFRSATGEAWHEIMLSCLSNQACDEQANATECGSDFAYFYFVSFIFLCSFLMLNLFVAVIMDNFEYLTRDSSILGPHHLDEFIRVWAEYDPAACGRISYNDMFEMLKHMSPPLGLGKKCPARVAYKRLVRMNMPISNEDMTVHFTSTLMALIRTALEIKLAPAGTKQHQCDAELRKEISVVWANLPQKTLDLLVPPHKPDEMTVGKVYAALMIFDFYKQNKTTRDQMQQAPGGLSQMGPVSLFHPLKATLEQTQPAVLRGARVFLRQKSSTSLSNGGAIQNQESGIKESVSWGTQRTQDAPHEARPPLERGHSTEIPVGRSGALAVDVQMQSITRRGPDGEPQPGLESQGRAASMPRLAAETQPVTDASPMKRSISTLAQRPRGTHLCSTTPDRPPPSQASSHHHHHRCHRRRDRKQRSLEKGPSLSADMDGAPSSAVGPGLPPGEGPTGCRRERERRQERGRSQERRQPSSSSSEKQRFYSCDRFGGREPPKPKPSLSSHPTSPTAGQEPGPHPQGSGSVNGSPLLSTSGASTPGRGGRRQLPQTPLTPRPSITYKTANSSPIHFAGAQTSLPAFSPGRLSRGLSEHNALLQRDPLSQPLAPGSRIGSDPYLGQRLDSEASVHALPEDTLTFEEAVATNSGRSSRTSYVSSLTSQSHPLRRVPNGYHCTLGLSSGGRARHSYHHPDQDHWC
T1 sequence (Q02294 whole entry): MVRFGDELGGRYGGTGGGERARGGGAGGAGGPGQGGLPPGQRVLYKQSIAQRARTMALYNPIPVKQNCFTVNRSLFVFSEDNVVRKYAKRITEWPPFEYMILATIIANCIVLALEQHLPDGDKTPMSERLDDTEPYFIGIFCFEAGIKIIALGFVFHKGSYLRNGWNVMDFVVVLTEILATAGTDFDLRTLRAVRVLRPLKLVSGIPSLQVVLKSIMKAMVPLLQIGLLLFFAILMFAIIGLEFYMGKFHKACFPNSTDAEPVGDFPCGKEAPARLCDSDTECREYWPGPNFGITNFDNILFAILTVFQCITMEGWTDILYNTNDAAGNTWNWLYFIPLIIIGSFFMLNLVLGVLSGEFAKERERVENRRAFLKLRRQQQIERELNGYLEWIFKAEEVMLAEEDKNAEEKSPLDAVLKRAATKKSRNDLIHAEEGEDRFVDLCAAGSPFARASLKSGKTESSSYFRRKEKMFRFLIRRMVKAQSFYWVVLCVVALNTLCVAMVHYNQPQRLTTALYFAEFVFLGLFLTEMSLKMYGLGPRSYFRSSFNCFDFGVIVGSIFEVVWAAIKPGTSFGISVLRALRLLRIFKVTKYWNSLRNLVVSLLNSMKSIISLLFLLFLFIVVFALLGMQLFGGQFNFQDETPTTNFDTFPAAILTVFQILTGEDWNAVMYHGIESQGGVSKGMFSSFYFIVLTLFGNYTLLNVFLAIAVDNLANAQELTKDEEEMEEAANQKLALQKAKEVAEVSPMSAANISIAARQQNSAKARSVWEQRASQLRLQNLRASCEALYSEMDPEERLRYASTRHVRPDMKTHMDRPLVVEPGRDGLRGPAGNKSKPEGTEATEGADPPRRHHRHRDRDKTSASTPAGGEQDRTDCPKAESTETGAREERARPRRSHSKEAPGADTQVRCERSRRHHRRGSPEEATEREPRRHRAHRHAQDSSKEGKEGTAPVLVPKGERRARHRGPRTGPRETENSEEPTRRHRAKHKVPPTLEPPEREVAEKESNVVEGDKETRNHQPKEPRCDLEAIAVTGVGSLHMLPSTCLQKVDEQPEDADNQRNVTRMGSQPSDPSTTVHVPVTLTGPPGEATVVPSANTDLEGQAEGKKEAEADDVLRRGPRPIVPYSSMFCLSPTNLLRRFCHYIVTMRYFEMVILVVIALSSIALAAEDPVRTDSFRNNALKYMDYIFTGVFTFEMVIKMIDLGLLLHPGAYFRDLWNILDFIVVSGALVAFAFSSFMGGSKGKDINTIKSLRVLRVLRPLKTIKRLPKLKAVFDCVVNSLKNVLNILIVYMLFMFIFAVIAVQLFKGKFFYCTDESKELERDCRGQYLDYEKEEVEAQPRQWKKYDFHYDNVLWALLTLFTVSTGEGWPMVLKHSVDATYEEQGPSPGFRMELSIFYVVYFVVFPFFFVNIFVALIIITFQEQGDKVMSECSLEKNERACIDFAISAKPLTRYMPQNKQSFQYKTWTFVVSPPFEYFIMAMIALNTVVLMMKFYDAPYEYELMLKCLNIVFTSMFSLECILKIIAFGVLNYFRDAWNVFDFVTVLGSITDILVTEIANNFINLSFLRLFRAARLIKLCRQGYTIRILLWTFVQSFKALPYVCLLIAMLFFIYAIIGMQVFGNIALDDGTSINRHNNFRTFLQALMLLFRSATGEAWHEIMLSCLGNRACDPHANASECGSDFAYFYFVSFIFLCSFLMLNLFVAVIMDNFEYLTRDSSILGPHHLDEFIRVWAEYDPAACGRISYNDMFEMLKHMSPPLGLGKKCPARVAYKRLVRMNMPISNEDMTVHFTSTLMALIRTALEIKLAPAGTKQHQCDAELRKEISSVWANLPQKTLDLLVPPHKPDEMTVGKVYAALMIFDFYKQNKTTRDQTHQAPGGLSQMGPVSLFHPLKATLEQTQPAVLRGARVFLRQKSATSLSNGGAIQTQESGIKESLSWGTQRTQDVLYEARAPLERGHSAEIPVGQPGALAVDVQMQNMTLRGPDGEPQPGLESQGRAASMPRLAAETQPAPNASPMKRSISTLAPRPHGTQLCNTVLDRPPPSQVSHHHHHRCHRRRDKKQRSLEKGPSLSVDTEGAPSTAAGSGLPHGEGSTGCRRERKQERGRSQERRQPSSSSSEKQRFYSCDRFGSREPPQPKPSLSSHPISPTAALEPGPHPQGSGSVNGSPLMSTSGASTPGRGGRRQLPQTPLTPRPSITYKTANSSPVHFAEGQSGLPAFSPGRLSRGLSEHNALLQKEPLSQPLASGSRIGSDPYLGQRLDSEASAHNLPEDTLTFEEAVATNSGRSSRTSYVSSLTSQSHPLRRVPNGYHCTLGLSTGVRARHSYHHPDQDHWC

| Structure (SMILES) | remaining at 0.5 h [1] | remaining at 0.5 h [2] | solubility [3] | IC50 ([4]; read-out: IC50) | IC50 ([4]; read-out: pIC50 (converted)) | other results |
| --- | --- | --- | --- | --- | --- | --- |
| CCC[C@H](NC)C(=O)N[C@H]1CC[C@@H]2CN(S(=O)(=O)c3ccc(C(F)(F)F)cc3)C[C@@H]21 | 83.4% | 74.6% | 97 µM (≈ 43.4 µg/mL) | 960 nM | – | – |
| CC(C)(C)C[C@H](N)C(=O)N[C@H]1CC[C@@H]2CN(S(=O)(=O)c3ccc(C(F)(F)F)cc3)C[C@@H]21 | 79.4% | 41.8% | 68 µM (≈ 31.4 µg/mL) | 870 nM | 933 nM | – |
| CC(C)N[C@@H](CC(C)(C)C)C(=O)N[C@H]1CC[C@@H]2CN(S(=O)(=O)c3ccc(C(F)(F)F)cc3)C[C@@H]21 | 64.3% | 79.6% | – | – | – | IC50 [5]: 2600 nM; Activity (Rattus norvegicus [6]): Toxic; ED50 (Rattus norvegicus [7]): 32 mg/kg; ED50 (Rattus norvegicus [8]): 8 mg/kg; ED50 (Rattus norvegicus [9]): 13 mg/kg; IC50 [10]: 340 nM; Kp at 1 h [11]: 0.9; IC50 [12]: 340 nM; AUC (Rattus norvegicus [13]): 240 ng·h/mL; CL (Rattus norvegicus [14]): 33 mL/min/kg; F (Rattus norvegicus [15]): 46.7%; Vd [16]: 7.1 L/kg; half-life [17]: 2.7 h |
| CN[C@@H](Cc1ccccc1)C(=O)N[C@H]1CC[C@@H]2CN(S(=O)(=O)c3ccc(C(F)(F)F)cc3)C[C@@H]21 | 26.2% | 26.8% | – | 860 nM | – | – |
| CC(C)C[C@H](NS(C)(=O)=O)C(=O)N[C@@H]1CC[C@H]2CN(Cc3cccc(C(F)(F)F)c3)C[C@H]21 | 42.1% | 23.6% | 80 µM (≈ 38 µg/mL) | 2840 nM | – | – |
| CN[C@@H](CC(C)C)C(=O)N[C@H]1CC[C@@H]2CN(c3ccc(OC(F)(F)F)cc3)C[C@@H]21 | 66% | > 85% | 31 µM (≈ 12.8 µg/mL) | 5150 nM | – | – |
| CN[C@@H](CC(C)C)C(=O)N[C@H]1CC[C@@H]2CN(c3ccc(C(F)(F)F)cc3)C[C@@H]21 | > 85% | > 85% | 33 µM (≈ 13.1 µg/mL) | 1240 nM | – | ED50 (Rattus norvegicus [7]): 10 mg/kg; ED50 (Rattus norvegicus [8]): 3 mg/kg; IC50 [10]: 4400 nM; IC50 [12]: 1000 nM; bioavailability [18]: 83%; AUC [19]: 799 ng·h/mL; Kp at 0.5 h [20]: 16.5; clearance [21]: 21.7 mL/min/kg; half-life [22]: 15.4 h; Vd [23]: 26.5 L/kg |
| CN[C@@H](CC(C)C)C(=O)N[C@H]1CC[C@@H]2CN(c3cccc(C(F)(F)F)c3)C[C@@H]21 | 81% | 73% | 56 µM (≈ 22.3 µg/mL) | – | 1170 nM | – |
| O=C(N[C@H]1CC[C@H]2CN(Cc3cccc(C(F)(F)F)c3)C[C@H]21)C(C1CCCCC1)C1CCCCC1 | 0.1% | 0.5% | < 3 µM | – | – | Ki [24]: 690 nM |
| CC(C)C[C@H](N)C(=O)N[C@@H]1CC[C@H]2CN(S(=O)(=O)c3cccc(C(F)(F)F)c3)C[C@H]21 | 10.3% | 45% | 44 µM (≈ 19.7 µg/mL) | 1060 nM | – | clearance [26]: 568 mL/min/kg; bioavailability [27]: 0%; Vd [16]: 15 L/kg; half-life [17]: 0.5 h |
| CC(C)(C)[C@H](N)C(=O)N[C@H]1CC[C@@H]2CN(S(=O)(=O)c3ccc(C(F)(F)F)cc3)C[C@@H]21 | 77.1% | 75.6% | 94 µM (≈ 42.1 µg/mL) | 1510 nM | – | – |
| O=C(N[C@@H]1CC[C@H]2CN(Cc3cccc(C(F)(F)F)c3)C[C@H]21)C(C1CCCCC1)C1CCCCC1 | 2.6% | 1.2% | < 3 µM | 1870 nM | – | Ki [24]: 9520 nM |
| CN[C@@H](CC(C)C)C(=O)N[C@@H]1CC[C@H]2CN(Cc3cccc(C(F)(F)F)c3)C[C@H]21 | 60.7% | 19.4% | 67 µM (≈ 27.6 µg/mL) | 1890 nM | – | – |

Further molecules by falling IC50 ([4]; read-out: IC50), results first:

| remaining at 0.5 h [1] | remaining at 0.5 h [2] | solubility [3] | IC50 ([4]; read-out: IC50) | IC50 ([4]; read-out: pIC50 (converted)) | Structure (SMILES) | other results |
| --- | --- | --- | --- | --- | --- | --- |
| 66.5% | 33.6% | 76 µM (≈ 36.1 µg/mL) | 790 nM | 832 nM | CN[C@@H](CC(C)(C)C)C(=O)N[C@H]1CC[C@@H]2CN(S(=O)(=O)c3ccc(C(F)(F)F)cc3)C[C@@H]21 | – |
| 47.3% | 50.5% | 27 µM (≈ 12.5 µg/mL) | 770 nM | 851 nM | CN[C@@H](CC(C)C)C(=O)N[C@@H]1CC[C@H]2CN(S(=O)(=O)c3ccc(C(F)(F)F)cc3)C[C@H]21 | bioavailability [18]: 21%; AUC [19]: 221 ng·h/mL; clearance [21]: 36.7 mL/min/kg; half-life [22]: 2.1 h; Vd [23]: 5.6 L/kg |
| 69.9% | 54.4% | 77 µM (≈ 35.5 µg/mL) | 750 nM | 851 nM | CN[C@@H](CC(C)C)C(=O)N[C@H]1CC[C@@H]2CN(S(=O)(=O)c3ccc(C(F)(F)F)cc3)C[C@@H]21 | bioavailability [18]: 50%; AUC [19]: 422 ng·h/mL; clearance [21]: 46.7 mL/min/kg; half-life [22]: 3.3 h; Vd [23]: 13.2 L/kg |
| 66.4% | 51.1% | 38 µM (≈ 17.5 µg/mL) | 750 nM | – | CCCC[C@H](NC)C(=O)N[C@H]1CC[C@@H]2CN(S(=O)(=O)c3ccc(C(F)(F)F)cc3)C[C@@H]21 | – |
| 26.5% | 25.5% | 75 µM (≈ 34.6 µg/mL) | 520 nM | 631 nM | CN[C@@H](CC(C)C)C(=O)N[C@@H]1CC[C@H]2CN(S(=O)(=O)c3cccc(C(F)(F)F)c3)C[C@H]21 | AUC [25]: 405 ng·h/mL; clearance [26]: 60 mL/min/kg; bioavailability [27]: 10.5%; Vd [16]: 9.2 L/kg; half-life [17]: 2 h |
| 89.2% | 22.8% | 20 µM (≈ 9.79 µg/mL) | 490 nM | 575 nM | CCN[C@@H](CC(C)(C)C)C(=O)N[C@H]1CC[C@@H]2CN(S(=O)(=O)c3ccc(C(F)(F)F)cc3)C[C@@H]21 | – |
| 1% | 0.1% | 79 µM (≈ 37.6 µg/mL) | 450 nM | – | CC(C)C[C@@H](C(=O)N[C@@H]1CC[C@H]2CN(S(=O)(=O)c3cccc(C(F)(F)F)c3)C[C@H]21)N(C)C | AUC [25]: 35 ng·h/mL; clearance [26]: 56.7 mL/min/kg; bioavailability [27]: 0.8%; Vd [16]: 5.2 L/kg; half-life [17]: 1.4 h |
